Reference: patent US20070299129A1, “Compounds and derivatives for the treatment of medical conditions by modulating hormone-sensitive lipase activity” (DEVIRIS INC., priority 2006, published 2007)
Values joined by “and” are separate entries in the source; they are usually repeats but may differ in a detail not shown here. Identical values can stand only once.

Assays:
COX-2 = molecular target: T1, COX-2 (Homo sapiens, UniProt P35354); details: Smith et al., Organic Letters, 7:5075-5078, 2005; cited from earlier work
T1 sequence (P35354 18-604): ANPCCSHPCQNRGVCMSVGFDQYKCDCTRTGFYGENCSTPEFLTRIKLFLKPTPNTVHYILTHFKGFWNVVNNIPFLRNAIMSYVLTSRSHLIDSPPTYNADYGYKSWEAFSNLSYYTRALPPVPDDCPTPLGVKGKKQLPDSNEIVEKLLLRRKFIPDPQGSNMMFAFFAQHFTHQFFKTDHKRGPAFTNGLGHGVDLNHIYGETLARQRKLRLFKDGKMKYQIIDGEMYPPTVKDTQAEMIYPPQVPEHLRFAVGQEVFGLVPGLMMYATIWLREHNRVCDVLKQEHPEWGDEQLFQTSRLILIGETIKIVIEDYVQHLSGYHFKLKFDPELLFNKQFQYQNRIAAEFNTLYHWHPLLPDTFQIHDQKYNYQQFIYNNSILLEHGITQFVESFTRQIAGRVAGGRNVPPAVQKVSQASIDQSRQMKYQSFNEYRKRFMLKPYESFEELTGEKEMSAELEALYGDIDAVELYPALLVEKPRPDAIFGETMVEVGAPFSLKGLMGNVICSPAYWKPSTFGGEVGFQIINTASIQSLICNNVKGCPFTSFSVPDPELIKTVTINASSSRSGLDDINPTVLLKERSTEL

[1] = molecular target: T2, recombinant His-HSL (hormone-sensitive lipase) (Rattus norvegicus, UniProt P15304); assay: Assay for potency of inhibition on HSL activity (neutral cholesteryl ester hydrolase activity, cholesteryl [1-14C]oleate), Example 1; type: biochemical; details: for % inhibition of HSL: in the presence of DTT (1 mM), inhibitor range 0-2.4 mg/mL (FIG. 1, Table 1); for HSL Activity (DPM) (average): HSL + DTT (1 mM), control without inhibitor 1585.64 DPM
T2 construct: cloning full-length rat HSL cDNA into the SmaI site of pAcHLT-A; His6 (N); made in house; host or cells: Sf21 insect cells (baculovirus, BaculoGold)
T2 sequence (P15304 1-768 isoform P15304-2): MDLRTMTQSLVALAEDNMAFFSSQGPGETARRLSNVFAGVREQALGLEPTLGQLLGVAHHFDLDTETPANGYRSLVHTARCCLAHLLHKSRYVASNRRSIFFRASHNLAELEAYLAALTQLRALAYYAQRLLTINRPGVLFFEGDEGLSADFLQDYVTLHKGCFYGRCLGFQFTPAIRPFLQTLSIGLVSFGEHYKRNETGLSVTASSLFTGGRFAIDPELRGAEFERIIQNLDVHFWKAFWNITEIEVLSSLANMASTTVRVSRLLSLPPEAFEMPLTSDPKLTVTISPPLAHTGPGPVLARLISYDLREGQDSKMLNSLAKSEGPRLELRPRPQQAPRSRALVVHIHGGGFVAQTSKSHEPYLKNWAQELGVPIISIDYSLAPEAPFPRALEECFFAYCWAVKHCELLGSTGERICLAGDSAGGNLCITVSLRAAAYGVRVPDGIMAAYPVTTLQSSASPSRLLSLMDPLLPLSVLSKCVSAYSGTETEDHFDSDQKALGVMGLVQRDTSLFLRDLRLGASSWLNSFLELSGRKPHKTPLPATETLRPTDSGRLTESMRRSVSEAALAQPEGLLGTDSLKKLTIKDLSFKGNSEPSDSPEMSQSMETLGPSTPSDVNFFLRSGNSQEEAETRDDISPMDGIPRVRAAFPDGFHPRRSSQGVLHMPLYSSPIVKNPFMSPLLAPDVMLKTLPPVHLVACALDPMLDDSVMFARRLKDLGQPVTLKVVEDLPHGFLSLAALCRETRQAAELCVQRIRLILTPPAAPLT
Procedure: Production of Recombinant HSL: Recombinant His-HSL was generated by cloning full-length rat HSL cDNA into the SmaI site of pAcHLT-A containing a His6 tag. pAcHLT-A-HSL (5 μg) was co-transfected into Sf21 cells with 0.5 μg of BaculoGold™ DNA using the transfection kit from the manufacturer. The titer of the recombinant virus was determined using an end point dilution assay, and the virus was re-amplified to a final titer of 1.5×10^7 pfu/ml. To produce recombinant proteins, Sf21 cells were grown in 150 mm Petri dishes and each 2×10^7 cells were infected with 100 μl of the high titer recombinant virus; cells were harvested three days after infection. After harvesting and cell extraction, His-HSL was purified on a Ni-agarose column.
Preparation of Substrate for Neutral Cholesteryl Ester Hydrolase Activity Assay: HSL activity was determined as neutral cholesteryl ester hydrolase activity using a cholesteryl[1-14C]oleate emulsion for measurement of cellular activity, as described previously. Substrate for the cholesteryl ester assay was prepared by adding 1.25 μCi cholesteryl [1-14C]oleate (purified by thin-layer chromatography), 0.043 mmol phosphatidylcholine, and 0.011 mmol cholesteryl oleate into 2.5 mL of 100 mM potassium phosphate buffer (pH 7.0) containing 5 mM sodium taurocholate. The substrate solution was vortexed and then sonicated for 3 hours with a Branson Sonifier/Cell Disruptor model W-350 on an output setting of 5.0 (50%). The substrate was centrifuged at 3000 rpm for 15 min to remove metallic fragments released by the probe and stored under nitrogen at 4° C. for up to one week.
Preparation of Inhibitor Stock Solution: Inhibitors (fraction # O-4355, O-4350, O-4361, O-4456, O-4457) were obtained from olives, olive oil, roots, bark and leaves from olea europeae species as previously described (Paiva-Martins et al., J. Agric. Food Chem., 49:4214-4219, 2001) and dissolved in 200 μL DMSO with 800 μL distilled water at a concentration of 10 mg/ml. This was regarded as stock solution. 0-60 μL of the stock solution were added to the HSL assay to achieve a final concentration of 0-2.4 mg/ml of the inhibitors. The same volume of DMSO without inhibitors was performed as a control.
Assay for Potency of Inhibition on HSL Activity by the Inhibitors: Aliquots of recombinant HSL protein and various concentrations of inhibitors (0-2.4 mg/mL final concentration) were mixed and the volume adjusted to 100 μL and mixed with 140 μL 0.05% bovine serum albumin in 100 mM potassium phosphate, pH 7.0. After the addition of 10 μL of substrate (100 μM final concentration), the assay was carried out at 37° C. for 60 min. The reaction was stopped by the addition of chloroform:methanol:heptane (250:230:180). After the addition of borate/carbonate buffer (0.1 M, pH, 10.5), the tubes were vortexed and centrifuged, and aliquots of the upper phase were taken for liquid scintillation counting in a Beckman scintillation counter.

% inhibition of HSL [1] | HSL Activity (DPM) (average) ([1]; inhibitor 0.4 mg/mL) | HSL Activity (DPM) (average) ([1]; inhibitor 0.8 mg/mL) | HSL Activity (DPM) (average) ([1]; inhibitor 1.2 mg/mL) | HSL Activity (DPM) (average) ([1]; inhibitor 1.6 mg/mL) | HSL Activity (DPM) (average) ([1]; inhibitor 2.0 mg/mL) | HSL Activity (DPM) (average) ([1]; inhibitor 2.4 mg/mL) | SMILES | anti-COX-2 activity (COX-2)
98% and 98.42% | 123.5 | 52.6035 | 51.145 | 88.595 | 49.56 | 25.035 | C/C=C(/C=O)[C@@H](CC=O)CC(=O)OCCc1ccc(O)cc1 [O-4456, para-hydroxyphenylelenolic acid dialdehyde] | having anti-COX-2 activity
97% and 97.95% | 214.85 | 87.105 | 48.025 | 49.885 | 39.545 | 32.495 | CC=C(C=O)C(CC=O)CC(=O)OCCc1ccc(O)c(O)c1 (stereo not drawn) [O-4457, 3,4-dihydroxyphenylelenolic acid dialdehyde] | –
